Measurements taken from US20160067246A1, “USE OF PHOSPHODIESTERASE 5A INHIBITORS FOR THE TREATMENT OF MUSCULAR DYSTROPHY” (CEDARS-SINAI MEDICAL CENTER, priority 2013, published 2016).
Values joined by “and” are separate entries in the source; they are usually repeats but may differ in a detail not shown here. Equal values may be shown once. Read-outs that look alike come from different tables or passages of the source.

How the values were obtained:
Type in all cases: in vivo, human
[1] = Pharmacokinetic study and drug blood levels in boys with DMD; details: for half-life: serum, oral, read-out: elimination half-life (converted)
Description: Serum blood samples for pharmacokinetic determinations were collected from patients at time 0-hr, 0.25-hr, 0.5-hr, 1-hr, 2-hr, 4-hr, 8-hr, and 24-hr following each treatment (sildenafil and tadalafil) and each dose (0.5 vs. 1.0 mg/kg). Blood levels were measured with high-performance liquid chromatography-tandem mass spectrometry (NMS Labs).
(§1) Patients received 0.5 mg/kg of oral sildenafil or tadalafil on day 1, followed by 1.0 mg/kg of sildenafil or tadalafil on day 2. Patients then crossed over 2 weeks later for the opposite drug. Experiments were performed 1 hour (sildenafil) or 3 hours (tadalafil) after oral treatment to match the experiment with the peak blood level. Patients were queried about potential side-effects throughout the study visit.

[2] = tested on: boys with Duchenne muscular dystrophy (DMD); assay: Exercise-induced hyperemia: brachial artery blood flow by Doppler ultrasound and hemodynamics, rest and post handgrip; parameters: key to BA velocity: mean blood velocity in cm/s; Heart rate: unit not given here
Description: Subjects were studied in the supine position. Heart rate was measured continuously by electrocardiography, and blood pressure measured by automated oscillometric sphygomanometry using a child's cuff ([…] Monitor 300 Series). Brachial artery mean blood velocity (MBV) was measured from the exercising arm using pulsed-Doppler ultrasonography (Siemens iE33). Data were acquired continuously with a 9-MHz probe with a 60° angle of insonation, placed on the skin surface distal to the axilla. The ultrasound gate was optimized to ensure complete insonation of the entire vessel cross-section with constant intensity. The Doppler audio signal was converted to a real-time flow velocity signal using a validated Doppler audio converter,^8B and recorded using a PowerLab data acquisition system (ADInstruments, CO). Brachial artery diameter was measured by B-mode imaging in triplicate at rest. […] Brachial artery blood flow was calculated as MBV (cm/s)·πr^2·60, where r is radius of the brachial artery. […] exercise was performed with a dynamometer ([…] Dynamometer modified by Stoelting). To determine maximal voluntary contraction (MVC), each subject was asked to grip the dynamometer as hard as possible. […] Vascular conductance was calculated as forearm blood flow divided by mean arterial pressure. […] Patients then crossed over 2 weeks later for the opposite drug. […] Patients were queried about potential side-effects throughout the study visit. Baseline characteristics of patients and controls were compared using Student's t test. Exercise-induced attenuation of reflex vasoconstriction (functional sympatholysis) was assessed by comparing the LBNP-induced AHbO2+MbO2 (% TLS) at rest versus the LBNP-induced decrease in ΔHbO2+MbO2 during handgrip. Group differences in ΔHbO2+MbO2 were assessed using a Student's t test. The drug treatment effect on LBNP-induced Δ·HbO2+MbO2 (% TLS) at rest versus the LBNP-induced decrease in ΔHbO2+MbO2 during handgrip was compared to baseline for each patient using a Student's t test. The group difference in the % Δ in brachial artery blood flow was assessed using a student's t test. The drug treatment effect on the % Δ in brachial artery blood flow was compared using a student's t test. All analyses were performed in SigmaPlot. Data are expressed as mean±SEM, unless otherwise specified.

[3] = tested on: boys with Duchenne muscular dystrophy (DMD); assay: Safety data / side-effects of PDE5 inhibitors in boys with DMD
Description: Subjects were studied in the supine position. Heart rate was measured continuously by electrocardiography, and blood pressure measured by automated oscillometric sphygomanometry using a child's cuff (Welch Allyn Vital Signs Monitor 300 Series).
as §1

[4] = tested on: patients with Becker muscular dystrophy (BMD); assay: Blood pressure, heart rate and adverse events in BMD tadalafil trial
Description: Subjects were studied in the supine position. Heart rate was measured continuously by electrocardiography and BP by automated oscillometric sphygmomanometry ([…] Monitor 300 Series, […].). […] The order of tadalafil/placebo was random. The research pharmacist placed tadalafil tablets or lactose powder (placebo) in opaque capsules to blind patients and investigators, both for the test dose and study dose of drug or placebo. Patients were queried about potential tadalafil-specific side-effects both for safety monitoring and to assess whether blinding was maintained. tadalafil blood levels were measured using high performance liquid chromatography/tandem mass spectrometry (NMS Labs Willow Grove, Pa.).

For `CN1CC(=O)N2[C@H](c3ccc4c(c3)OCO4)c3[nH]c4ccccc4c3C[C@@H]2C1=O` [tadalafil], the peak blood level ([1]; boys with DMD, 1.0 mg/kg oral) was 492.5 ± 47.3 ng/mL, the “time of peak blood level after oral administration” value ([1]; boys with DMD, 0.5 and 1.0 mg/kg oral) was 2 to 4 h and the “time the drug remained elevated in the blood” value ([1]; male, human, in vivo, po) was “up to 24 hours”. The half-life ([1]; male, human, boys with DMD, 0.5 mg/kg dose) was 24.9 ± 3.1 h, the half-life ([1]; male, human, boys with DMD, 1.0 mg/kg dose) was 39.5 ± 6.6 h and the “BA VC (vascular conductance)” value ([2]; 0.5 mg/kg, Post-exercise) was 2.6 ± 0.4 ml/min/mmHg. For the same molecule, the BA blood flow ([2]; 0.5 mg/kg, Post-exercise) was 184 ± 24 mL/min, the BA velocity ([2]; 0.5 mg/kg, Post-exercise) was 38 ± 5 and the Heart rate ([2]; 0.5 mg/kg, Post-exercise) was 94 ± 3. For the same molecule, the MAP ([2]; 0.5 mg/kg, Post-exercise) was 72 ± 2 mmHg, the “BA VC (vascular conductance)” value ([2]; 0.5 mg/kg, Rest) was 1.7 ± 0.3 ml/min/mmHg and the BA blood flow ([2]; 0.5 mg/kg, Rest) was 118 ± 15 mL/min. For the same molecule, the BA velocity ([2]; 0.5 mg/kg, Rest) was 26 ± 4, the Heart rate ([2]; 0.5 mg/kg, Rest) was 91 ± 3 and the MAP ([2]; 0.5 mg/kg, Rest) was 74 ± 3 mmHg. For the same molecule, the “BA VC (vascular conductance)” value ([2]; 1.0 mg/kg, Post-exercise) was 2.5 ± 0.3 ml/min/mmHg, the BA blood flow ([2]; 1.0 mg/kg, Post-exercise) was 170 ± 17 mL/min and the BA velocity ([2]; 1.0 mg/kg, Post-exercise) was 35 ± 4. For the same molecule, the Heart rate ([2]; 1.0 mg/kg, Post-exercise) was 92 ± 4, the MAP ([2]; 1.0 mg/kg, Post-exercise) was 71 ± 3 mmHg and the “BA VC (vascular conductance)” value ([2]; 1.0 mg/kg, Rest) was 1.5 ± 0.3 ml/min/mmHg. It also gave a BA blood flow ([2]; 1.0 mg/kg, Rest) of 104 ± 14 mL/min, a BA velocity ([2]; 1.0 mg/kg, Rest) of 21 ± 3 and a Heart rate ([2]; 1.0 mg/kg, Rest) of 91 ± 3. For the same molecule, the MAP ([2]; 1.0 mg/kg, Rest) was 71 ± 2 mmHg, the “duration of (penile) erection in an individual patient” value ([3]; higher dose 1.0 mg/kg) was 4 h and the “duration of (penile) erection in an individual patient” value ([3]; low dose 0.5 mg/kg, 0.5 mg/kg) was > 4 h and 3 h and 6 h. The “adverse events or side-effects” value ([4]; 10 mg test dose and 20 mg study dose) was “no adverse events or side-effects”, the “diastolic blood pressure post-tadalafil” value ([4]; post-tadalafil (pre 72±2), P>0.05) was 73±3 mm Hg and the heart rate post-tadalafil ([4]; post-tadalafil (pre 84±4), P>0.05) was 80±4 beats per minute. The “systolic blood pressure post-tadalafil” value ([4]; post-tadalafil (pre 116±3), P>0.05) was 114±4 mmHg.
